24 molecules from patent publication US20240124412A1, “IKAROS ZINC FINGER FAMILY DEGRADERS AND USES THEREOF” (Gilead Sciences, Inc., priority 2021, published 2024) can be followed below.

Molecules are shown by their SMILES. Some results are limits rather than exact numbers.

The target in test [1] is T1, IKZF2 (Homo sapiens, UniProt Q96SW2+Q9UKS7).
T1 construct: expressed in transfected cells
The experiment in a line: HiBiT protein tagging assay, in vitro IKZF2 degradation (HEK293). The following applies: HEK293, 18-24 hr incubation, normalized to DMSO control; for Dmax: HEK293, HiBiT assay, read-out: IKZF2 Dmax (maximum degradation at the highest concentration tested); for DC50: HiBiT assay, read-out: IKZF2 EC50. The class given is cell-based. An outline of the steps: (§1)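 Flp-In T-REx HEK293 pools stably expressing C-terminal HiBiT-tagged IKZF1 or IKZF2 were induced overnight with 1 μg/ml doxycycline. Cells were then treated with serially diluted compound for 18-24 hr at 37 °C and read by Nano-Glo lytic luminescence. Data were normalized to 0.5% DMSO as POC; EC50 and Dmax (maximum degradation at highest concentration tested) reported.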

The target in test [2] is T2, IKZF1 (Homo sapiens, UniProt Q13422+Q96SW2).
T2 construct: expressed in transfected cells
The experiment in a line: HiBiT protein tagging assay, in vitro IKZF1 degradation (HEK293). The format is cell-based. The following applies: HEK293, 18-24 hr incubation, normalized to DMSO control; for Dmax: read-out: IKZF1 Dmax (maximum degradation at the highest concentration tested); for DC50: read-out: IKZF1 EC50. An outline of the steps: as §1

T2 sequence (Q13422 whole entry): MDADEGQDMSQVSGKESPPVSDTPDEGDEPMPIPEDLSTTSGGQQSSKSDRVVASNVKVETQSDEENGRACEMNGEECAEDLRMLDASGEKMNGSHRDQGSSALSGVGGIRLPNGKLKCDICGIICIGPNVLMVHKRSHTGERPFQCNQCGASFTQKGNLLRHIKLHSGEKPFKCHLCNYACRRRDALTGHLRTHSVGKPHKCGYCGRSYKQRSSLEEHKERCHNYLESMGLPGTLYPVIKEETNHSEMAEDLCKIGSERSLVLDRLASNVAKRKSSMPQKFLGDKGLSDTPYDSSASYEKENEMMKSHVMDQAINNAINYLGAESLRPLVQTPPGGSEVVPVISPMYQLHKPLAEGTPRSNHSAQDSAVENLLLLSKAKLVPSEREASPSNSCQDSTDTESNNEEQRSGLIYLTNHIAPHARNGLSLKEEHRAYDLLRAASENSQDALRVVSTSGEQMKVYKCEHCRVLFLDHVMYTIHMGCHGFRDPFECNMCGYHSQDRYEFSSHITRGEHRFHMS
T2 sequence (Q96SW2 whole entry): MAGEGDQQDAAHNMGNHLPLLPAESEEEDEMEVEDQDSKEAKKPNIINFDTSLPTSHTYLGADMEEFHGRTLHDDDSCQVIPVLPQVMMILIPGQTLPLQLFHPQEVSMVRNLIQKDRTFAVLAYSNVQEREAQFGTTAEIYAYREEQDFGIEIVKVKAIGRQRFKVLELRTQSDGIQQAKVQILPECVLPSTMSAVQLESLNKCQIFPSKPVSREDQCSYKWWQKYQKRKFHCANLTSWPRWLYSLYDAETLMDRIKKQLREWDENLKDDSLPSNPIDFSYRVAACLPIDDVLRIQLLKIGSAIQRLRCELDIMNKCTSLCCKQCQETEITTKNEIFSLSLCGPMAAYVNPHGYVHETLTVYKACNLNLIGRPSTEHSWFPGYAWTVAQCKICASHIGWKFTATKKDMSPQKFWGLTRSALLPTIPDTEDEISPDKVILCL
T2 sequence (Q16531 whole entry partner): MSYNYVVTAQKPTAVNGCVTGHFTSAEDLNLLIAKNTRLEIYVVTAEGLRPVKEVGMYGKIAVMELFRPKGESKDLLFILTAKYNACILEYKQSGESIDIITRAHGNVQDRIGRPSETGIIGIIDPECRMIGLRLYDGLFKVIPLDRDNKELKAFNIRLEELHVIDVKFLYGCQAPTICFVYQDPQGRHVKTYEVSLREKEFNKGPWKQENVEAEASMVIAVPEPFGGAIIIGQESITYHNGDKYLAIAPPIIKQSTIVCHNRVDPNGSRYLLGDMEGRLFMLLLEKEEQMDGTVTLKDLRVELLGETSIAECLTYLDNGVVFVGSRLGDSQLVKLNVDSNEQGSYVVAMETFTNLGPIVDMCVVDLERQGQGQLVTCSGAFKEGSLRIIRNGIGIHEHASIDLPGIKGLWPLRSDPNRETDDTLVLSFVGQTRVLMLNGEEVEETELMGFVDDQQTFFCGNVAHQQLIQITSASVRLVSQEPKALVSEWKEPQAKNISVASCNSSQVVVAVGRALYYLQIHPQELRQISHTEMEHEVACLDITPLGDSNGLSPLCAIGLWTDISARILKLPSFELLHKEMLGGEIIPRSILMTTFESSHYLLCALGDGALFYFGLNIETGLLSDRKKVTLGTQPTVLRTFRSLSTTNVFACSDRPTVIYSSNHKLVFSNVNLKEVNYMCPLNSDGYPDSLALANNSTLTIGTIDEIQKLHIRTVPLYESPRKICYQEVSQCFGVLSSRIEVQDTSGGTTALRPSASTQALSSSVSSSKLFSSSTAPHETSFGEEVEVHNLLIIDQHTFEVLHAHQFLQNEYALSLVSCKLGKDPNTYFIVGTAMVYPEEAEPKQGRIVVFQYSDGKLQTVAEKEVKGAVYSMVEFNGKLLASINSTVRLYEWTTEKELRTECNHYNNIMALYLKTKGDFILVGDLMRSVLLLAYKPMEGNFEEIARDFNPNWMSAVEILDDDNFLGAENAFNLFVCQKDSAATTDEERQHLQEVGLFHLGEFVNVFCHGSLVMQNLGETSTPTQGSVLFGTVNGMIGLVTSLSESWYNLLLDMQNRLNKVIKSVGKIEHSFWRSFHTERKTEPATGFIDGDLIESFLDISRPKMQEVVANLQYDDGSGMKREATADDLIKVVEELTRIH
T1 sequence (Q9UKS7 1-500 isoform Q9UKS7-2): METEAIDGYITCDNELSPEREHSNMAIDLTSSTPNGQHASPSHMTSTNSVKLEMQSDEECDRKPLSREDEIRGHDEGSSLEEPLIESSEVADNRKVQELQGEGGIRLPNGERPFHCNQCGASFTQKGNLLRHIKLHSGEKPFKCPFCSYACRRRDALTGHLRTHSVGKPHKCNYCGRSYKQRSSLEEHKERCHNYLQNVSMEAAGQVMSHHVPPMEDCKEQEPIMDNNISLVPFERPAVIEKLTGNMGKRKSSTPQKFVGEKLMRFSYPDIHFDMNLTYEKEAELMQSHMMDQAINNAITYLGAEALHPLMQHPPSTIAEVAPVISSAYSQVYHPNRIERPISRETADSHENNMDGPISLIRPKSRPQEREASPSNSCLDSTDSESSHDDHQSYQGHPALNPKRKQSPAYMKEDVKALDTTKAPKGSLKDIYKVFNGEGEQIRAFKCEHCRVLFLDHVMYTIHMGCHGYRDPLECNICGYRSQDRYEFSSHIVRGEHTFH
T1 sequence (Q96SW2 whole entry): as the sequence (Q96SW2 whole entry) above
T1 sequence (Q16531 whole entry partner): as the sequence (Q16531 whole entry partner) above

With `O=C1CCC(N2Cc3cc(CN[C@H]4CCC[C@@H](Cc5ccccc5)C4)ccc3C2=O)C(=O)N1` (stereo partly shown) [Example 116], in test [1], the Dmax is 81% and the DC50 is 68 nM. For the same molecule, in test [2], the Dmax was 82% and the DC50 worked out at 23 nM.
The matching figures for `CC1(C)C[C@]2(CC[C@H](NCc3ccc4c(c3)CN(C3CCC(=O)NC3=O)C4=O)CC2)CO1` (stereo partly shown) [Example 117]: 88%, 198 nM, 49% and 216 nM.
The matching figures for `CC1(C)C[C@]2(CC[C@@H](NCc3ccc4c(c3)CN(C3CCC(=O)NC3=O)C4=O)CC2)CO1` (stereo partly shown) [Example 118]: 78%, 453 nM, 51% and 335 nM.
The like results for `C[C@H]1CC[C@@H](NCc2ccc3c(c2)CN(C2CCC(=O)NC2=O)C3=O)CN1Cc1ccccc1` (stereo partly drawn) [Example 119, 3-(5-((((3R,6S)-1-benzyl-6-methylpiperidin-3-yl)amino)methyl)-1-oxoisoindolin-2-yl)piperidine-2,6-dione] were, in that order, 93%, 105 nM, 94% and 17 nM.
Take `O=C1CCC(N2Cc3cc(CN[C@H]4CCCC[C@H]4OCc4ccccc4)ccc3C2=O)C(=O)N1` (stereo partly shown) [Example 120]: the Dmax in test [1] and in test [2] was 97% in each case. The results for the DC50 in test [1] and in test [2] were 3 nM and 2 nM, respectively.
Regarding `O=C1CCC(N2Cc3cc(CNC4CCCC(Cn5cccn5)C4)ccc3C2=O)C(=O)N1` (stereo not shown) [Example 121], in test [1], the Dmax stood at 92% and the DC50 came to 336 nM. Moreover, in test [2], the Dmax stood at 93% and the DC50 was found to be 169 nM.
The matching figures for `O=C1CCC(N2Cc3cc(CNC4CCCC(Cn5ncc6ccccc65)C4)ccc3C2=O)C(=O)N1` (stereo not shown) [Example 122]: 96%, 48 nM, 97% and 22 nM.
The matching figures for `O=C1CCC(N2Cc3cc(CN[C@@H]4CCCN(C(c5ccccc5)C(F)(F)F)C4)ccc3C2=O)C(=O)N1` (stereo partly shown) [Example 123]: 87%, 56 nM, 95% and 10 nM.
`O=C1CCC(N2Cc3cc(CN[C@@H]4CCCN(Cc5cccnc5)C4)ccc3C2=O)C(=O)N1` (stereo partly drawn) [Example 124, 3-(1-oxo-5-((((R)-1-(pyridin-3-ylmethyl)piperidin-3-yl)amino)methyl)isoindolin-2-yl)piperidine-2,6-dione]: in test [1], the Dmax amounted to 96% and the DC50 is 318 nM. For the same molecule, in test [2], the Dmax was 96% and the DC50 was 115 nM.
`O=C1CCC(N2Cc3cc(CN[C@@H]4CCCN(Cc5ccncc5)C4)ccc3C2=O)C(=O)N1` (stereo partly drawn) [Example 125, 3-(1-oxo-5-((((R)-1-(pyridin-4-ylmethyl)piperidin-3-yl)amino)methyl)isoindolin-2-yl)piperidine-2,6-dione]: in test [1], the Dmax came to 86% and the DC50 amounted to 427 nM. Also, in test [2], the Dmax is 95% and the DC50 was 124 nM.
The like results for `O=C1CCC(N2Cc3cc(CN[C@@H]4CCCC[C@H]4OCc4ccccc4)ccc3C2=O)C(=O)N1` (stereo partly shown) [Example 126] were, in that order, 93%, 79 nM, 53% and 151 nM.
The like results for `CO[C@@H]1CCCC[C@H]1NCc1ccc2c(c1)CN(C1CCC(=O)NC1=O)C2=O` (stereo partly shown) [Example 127] were, in that order, 85%, 170 nM, 57% and 213 nM.
The like results for `O=C1CCC(N2Cc3cc(CNC4CCCC(C(F)(F)F)C4)ccc3C2=O)C(=O)N1` (stereo not drawn) [Example 128, 3-(1-oxo-5-((((1,3-trans)-3-(trifluoromethyl)cyclohexyl)amino)methyl)isoindolin-2-yl)piperidine-2,6-dione] were, in that order, 64%, 181 nM, 42% and 104 nM.
For `O=C1CCC(N2Cc3cc(CN[C@@H]4CCC[C@H](C(=O)c5ccccc5)C4)ccc3C2=O)C(=O)N1` (stereo partly shown) [Example 129], in test [1], the Dmax came to 60% and the DC50 is 193 nM. In test [2], the Dmax worked out at 60% and the DC50 turned out to be 113 nM.
As to `O=C1CCC(N2Cc3cc(CN[C@@H]4CCCN(Cc5ccccn5)C4)ccc3C2=O)C(=O)N1` (stereo partly drawn) [Example 130, 3-(1-oxo-5-((((R)-1-(pyridin-2-ylmethyl)piperidin-3-yl)amino)methyl)isoindolin-2-yl)piperidine-2,6-dione], the Dmax in test [1] and in test [2] was 97% each time. In addition, the DC50 in test [1] was 138 nM; in test [2] it was 48 nM.
Take `CC1(C)CCCC(NCc2ccc3c(c2)CN(C2CCC(=O)NC2=O)C3=O)C1` (stereo not shown) [Example 131]: in test [1], the Dmax stood at 92% and the DC50 came to 62 nM. For the same molecule, in test [2], the Dmax is 69% and the DC50 turned out to be 91 nM.
The matching figures for `O=C1CCC(N2Cc3cc(CNC4CCCC5(CC5)C4)ccc3C2=O)C(=O)N1` (stereo not shown) [Example 132]: 84%, 97 nM, 58% and 146 nM.
The like results for `O=C1CCC(N2Cc3cc(CNC4CCCC5(CCCC5)C4)ccc3C2=O)C(=O)N1` (stereo not shown) [Example 133] were, in that order, 72%, 273 nM, 51% and 185 nM.
For the molecule `C[C@@H]1[C@@H](NCc2ccc3c(c2)CN(C2CCC(=O)NC2=O)C3=O)C[C@H]2C[C@@H]1C2(C)C` (stereo partly shown) [Example 134], the Dmax in test [1] was determined as 89%. Moreover, the DC50 in test [1] was 111 nM; in test [2], over 10000 nM.
As to `O=C1CCC(N2Cc3cc(CN[C@@H]4CCC[C@H]([C@@H](O)c5ccccc5)C4)ccc3C2=O)C(=O)N1` (stereo partly shown) [Example 135], in test [1], the Dmax was found to be 94% and the DC50 turned out to be 231 nM. Besides, in test [2], the Dmax turned out to be 92% and the DC50 came out at 95 nM.
The matching figures for `O=C1CCC(N2Cc3cc(CN[C@@H]4CCC[C@H]([C@H](O)c5ccccc5)C4)ccc3C2=O)C(=O)N1` (stereo partly shown) [Example 136]: 95%, 204 nM, 93% and 99 nM.
Take `O=C1CCC(N2Cc3cc(CN[C@@H]4CCC[C@H](Cc5ccccc5Cl)C4)ccc3C2=O)C(=O)N1` (stereo partly shown) [Example 137]: the Dmax in test [1] came to 96%; in test [2], 95%. Further, the DC50 in test [1] turned out to be 8 nM; in test [2] it was 3 nM.
In the case of `C[C@@H]1CC[C@@H](NCc2ccc3c(c2)CN(C2CCC(=O)NC2=O)C3=O)CN1Cc1ccccc1` (stereo partly drawn) [Example 138, 3-(5-((((3R,6R)-1-benzyl-6-methylpiperidin-3-yl)amino)methyl)-1-oxoisoindolin-2-yl)piperidine-2,6-dione], in test [1], the Dmax was 83% and the DC50 came to 189 nM. For the same molecule, in test [2], the Dmax turned out to be 92% and the DC50 is 27 nM.
Turning to `C[C@@H]1[C@H]2C[C@@H](C[C@H]1NCc1ccc3c(c1)CN(C1CCC(=O)NC1=O)C3=O)C2(C)C` (stereo partly shown) [Example 139], in test [1], the Dmax is 26% and the DC50 was determined as 109 nM. Moreover, in test [2], the DC50 is over 1000 nM.
